According to patent US7005274B1, “Methods and compositions for diagnosing and treating arthritic disorders and regulating bone mass” (MIGENIX Corp., priority 1999, dated 2006):

How the values were obtained:
[1] = test system: TC28 cells; experiment: Cell viability by LDH release in stressor-exposed chondrocytes; format: cell-based; details: for cell viability (LDH release) under SIN-1 / cell viability under NOC-12 / cell viability of cells exposed to SIN-1 or NOC-12: compound 1 μM; for cell viability (LDH release) under SIN-1: 100 μM SIN-1; for cell viability under NOC-12: NOC-12 (250 μM)
Procedure: (§1) This example describes screening assays using defined chondrocyte functions, for identifying agents that protect chondrocytes from mitochondrial stressors, such as energy depletion or reactive free radicals. Chondrocytic TC28 cells were maintained at 37° C., 5% CO2 in monolayer culture in DMEM/Ham's F12 medium (1:1) supplemented with 10% FCS, 1% L-glutamine, 100 U/ml penicillin and […] streptomycin (Omega Scientific, Tarzana, Calif.). To more closely approximate the in vivo physiologic nonadherent state of chondrocytes for monitoring GAG release (FIG. 10), an in vitro culture system was used wherein TC28 cells were transferred to 6-well plates that had been previously coated for 18 hours at 22° C. with the cell adhesion inhibitor poly-2-hydroxymethacrylate (polyHEMA), provided as a 10% (w/v) solution in 95% ethanol, then washed twice with PBS. Complete medium (DMEM/F12 supplemented as described above) was then added to wells, and cells were maintained under these conditions for up to 72 hours (Folkman et al., 1978 Nature 273:345; Reginato et al., 1994 Arthritis Rheum. 37:1338). Maintenance of chondrocyte phenotype was confirmed by RT-PCR determination of gene transcripts encoding the chondrocyte extracellular matrix components type II collagen and aggrecan (Reginato et al., 1994).
Cells were exposed to one of several agonists added to cultures as stressors for 72 hours, in the absence or presence of candidate chondrocyte protective agents (listed in Table 2). According to non-limiting theory, such stressors may act as one or more of a mitochondrial inhibitor, an inducer of altered mitochondrial function, an apoptogen, an energy-depleting agent, or the like. Stressors used in this example included the […] NOC-12 (N-ethyl-2-(1-ethyl-2-hydroxy-2-nitrosohydrazino)ethanamine; Calbiochem, La Jolla, Calif.); the peroxynitrite donor SIN-1 (3-morpholinosydnonimine, HCl; Calbiochem); and the inflammatory cytokine human recombinant interleukin-1 beta (IL-1β, Calbiochem). Cytotoxicity was determined using the lactate dehydrogenase release assay (Promega, Madison, Wis.) as described above and according to the manufacturer's instructions, and chondrocyte intracellular ATP was determined using the luciferase assay as described above in Example 1.

[2] = test system: TC28 cells; experiment: GAG release, dimethylene blue dye binding; format: cell-based; details: for GAG release caused by stressor: TC28 nodules, SIN-1 100 μM, NOC-12 25 μM, IL-1β
Procedure: as §1
Glycosaminoglycan (GAG) release is widely believed to be a cardinal event in the pathogenesis of osteoarthritis, and is stimulated by IL-1β (see, e.g., Sztrolovics et al., 1999 Biochem. J. 339:571 and references cited therein). Therefore, GAG release was determined in chondrocytes maintained on polyHEMA-coated plates as follows: Chondrocyte cartilage “nodules” from the polyHEMA cultures were digested for one hour with papain, 300 μg/ml in 20 mM sodium phosphate-pH 6.8, 1 mM EDTA, 2 mM dithiothreitol. Released GAG was assayed colorimetrically by dimethylene blue (DMB) dye binding according to established procedures (Farndale et al., 1986 Biochim. Biophys. Acta 883:173; Sztrolovics et al., 1999 Biochem. J. 339:571). Briefly, aliquots of the papain digest were added to a dye solution containing 46 μM DMB, 40 mM glycine-pH 3.0, 40 mM NaCl and read immediately in a spectrophotometer at 525 nm. Quantification of GAG in the samples was achieved from calculations using a standard curve generated with samples of 1–50 μg/ml chondroitin sulfate. Mitochondrial protecting agents based on derivatized creatine, ethoxyquin and guanidine compounds were synthesized essentially as disclosed in WO99/37294 (PCT/US99/01718) and WO99/55321 (PCT/US99/09990), which are hereby incorporated by reference in their entireties; these agents were tested as representative candidate chondrocyte protective agents.

[3] = test system: TC28 cells; experiment: Intracellular ATP, luciferase assay; format: cell-based; details: for intracellular ATP levels relative to control culture not exposed to NOC-12: NOC-12 alone or in the presence of 1 μM compound
Procedure: (§2) Levels of total cellular ATP were measured by a modification of luciferase-based assays known in the art (Lin et al., Anal. Biochem. 24:531–540, 1968); related assays and modifications may alternatively be used (see, e.g., Turman et al., In Vitro Cell. Dev. Biol. Anim. 32:1–4, 1996, for an assay format that uses a fluorescent plate reader). In brief, 2×10^6 cells were washed and pelleted in 10 ml phosphate-buffered saline (PBS). The cell pellets were snap-frozen in a dry ice/ethanol bath, after which […] of 0.2 M HCl was added, followed by 0.3 ml of 2 mM glycine (pH 9.0). Samples were heated at 100° C. for five minutes, then placed on ice. A standard curve was developed using 0 to 500 pmol of purified ATP (disodium salt). One hundred (100) μl of the cell extract, or purified ATP standard, was added to an equal volume of the ATP assay mixture (containing MgSO4, DTT, EDTA, luciferase and luciferin, all from the Sigma Bioluminescence Assay Kit and all diluted 1:25). Following a 5 second incubation and 15 second integration, samples were read on a TD-20/20 Luminometer (Turner Designs, Sunnyvale, Calif.).

[4] = test system: articular chondrocytes and TC28 cells; experiment: Intracellular ATP, statements covering both cell preparations; format: cell-based, human; details: for intracellular ATP levels (qualitative): SIN-1 500 μM, NOC-12 250 μM, antimycin A and oligomycin concentration not stated
Procedure: as §2
In FIG. 1A, articular chondrocytes or TC28 cells (5×10^5) in 5 ml were studied in triplicate in the presence of antimycin (or oligomycin, see next Example) at the indicated concentrations, administered every 24 hours for a total of 72 hours, and total intracellular ATP concentrations were determined as described above. Viability determinations are shown in FIG. 1B, where 2×10^4 chondrocytes or TC28 cells in 0.2 ml were cultured in triplicate in the presence of antimycin (or oligomycin) at the indicated concentrations, administered every 24 hours for a total of 72 hours, and cell viability was determined by trypan blue dye exclusion (>200 cells counted for each replicate).

[5] = test system: articular chondrocytes and TC28 cells; experiment: Oxygen consumption with a Clark electrode (respiratory rate); format: cell-based, human; details: SIN-1 500 μM; NOC-12 250 μM; antimycin A and oligomycin concentration not stated
[6] = test system: Articular Chondrocytes; experiment: Intracellular ATP, luciferase assay; format: cell-based, human; details: 10 ng/ml TGFβ, 0.025 mM antimycin A, 0.02 μg/ml oligomycin; mean ± SD
Procedure: Human articular cartilage chondrocytes were obtained by collagenase digestion of articular cartilage samples, and subsequent monolayer culture, essentially as described by Terkeltaub et al. (Arthritis Rheum. 41:2152–2164, 1998). The starting material for these primary cultures was human articular cartilage excised during surgical joint replacement, or obtained at autopsy from normal or osteoarthritic joints. The articular chondrocytes were grown in Dulbecco's modified Eagle's Medium with high glucose (DMEM high glucose, Life Technologies, Inc. Grand Island, N.Y.) with 10% fetal calf serum (FCS), 1% glutamine, 100 U/ml penicillin and 50 μg/ml streptomycin (all reagents from Sigma, St. Louis, Mo., unless otherwise noted). Typically, only first passage cells were used in the studies described herein.
as §2, with “Calif.). […]” for “Calif.).”

Molecule: Cc1cc(O)ccc1NC(=N)N [A]
- cell viability (LDH release) under SIN-1 [1]: protective effect on cell viability
- cell viability under NOC-12 [1]: moderating effect of the test compounds on NO cytotoxicity

Molecule: N=C1NCCN1CC(=O)O [B]
- cell viability (LDH release) under SIN-1 [1]: protective effect on cell viability
- cell viability under NOC-12 [1]: moderating effect of the test compounds on NO cytotoxicity

Molecule: CN(CC(=O)O)C(=N)N [C]
- cell viability (LDH release) under SIN-1 [1]: protective effect on cell viability
- cell viability under NOC-12 [1]: moderating effect of the test compounds on NO cytotoxicity
- GAG release induced by SIN-1 or NOC-12 ([2]; SIN-1 (100 μM) or NOC-12 (25 μM), 1 μM compound, not shown): the severity of this release was moderated
- IL-1β-stimulated GAG release ([2]; TC28 nodules on polyHEMA-coated plates): somewhat attenuated the degree of GAG release

Molecule: N=C(N)Nc1ccc(N2CCOCC2)cc1 [E]
- intracellular ATP levels relative to control culture not exposed to NOC-12 [3]: significant depression of intracellular ATP
- cell viability under NOC-12 [1]: significantly higher viability

Molecule: CC(=N)NNCC1(C)CCc2c(C)c(O)c(C)c(C)c2O1 (centres unmarked) [J]
- cell viability of cells exposed to SIN-1 or NOC-12 [1]: demonstrated chondrocyte protective activity

Molecule: CN(C)c1cc(C(C)(C)c2ccc(O)c(N(C)C)c2)ccc1O [K]
- cell viability of cells exposed to SIN-1 or NOC-12 [1]: demonstrated chondrocyte protective activity

Molecule: CC(C)(c1ccc(O)cc1)c1ccc(O)c(N)c1 [L]
- cell viability of cells exposed to SIN-1 or NOC-12 [1]: demonstrated chondrocyte protective activity

Molecule: CCNCCN(CC)N(O)N=O [NOC-12, N-ethyl-2-(1-ethyl-2-hydroxy-2-nitrosohydrazino)ethanamine]
- intracellular ATP levels relative to control culture not exposed to NOC-12 [3]: significant depression of intracellular ATP
- intracellular ATP levels (qualitative) [4]: depressed intracellular ATP levels
- respiratory rates [5]: markedly inhibited respiratory rates
- GAG release caused by stressor [2]: also released GAG

Molecule: Nc1c[n+](N2CCOCC2)no1.[Cl-] [SIN-1, 3-morpholinosydnonimine, HCl]
- intracellular ATP levels (qualitative) [4]: depressed intracellular ATP levels
- respiratory rates [5]: markedly inhibited respiratory rates
- GAG release caused by stressor [2]: also released GAG

Molecule: IL-1β: inflammatory cytokine human recombinant interleukin-1 beta
- effect of stressor on intracellular ATP levels ([3]; TC28 cells): did not cause a decrease in intracellular ATP levels
- effect of stressor on viability ([1]; TC28 cells): did not cause a decrease
- GAG release caused by stressor [2]: IL-1β-stimulated GAG release

Molecule: TGFβ
- ATP (pmoles/μg DNA): Articular Chondrocytes [6]: 1,158 ± 6.9 pmoles/μg DNA
- ATP (pmoles/μg DNA):TC28 cells ([3]; 10 ng/ml TGFβ, 0.025 mM antimycin A, 0.02 μg/ml oligomycin, mean ± SD): 801.6 ± 4.9 pmoles/μg DNA
- increase of intracellular ATP ([4]; chondrocytes, assessed 72 hours after treatment): about 3 fold
